Data: patent US8124629B2, “Naphthylacetic acids” (Hoffmann-La Roche Inc., priority 2008, dated 2012)

These molecules were tested against T1, human CRTH2 (Homo sapiens, UniProt Q9Y5Y4) (assay: Human CRTH2 Receptor Binding Assay (whole cell, [3H]ramatroban)). Details: CHO-K1 cells expressing human CRTH2 and G-alpha16; 20 nM [3H]ramatroban; 1 hour, room temperature.
T1 sequence (Q9Y5Y4 1-395): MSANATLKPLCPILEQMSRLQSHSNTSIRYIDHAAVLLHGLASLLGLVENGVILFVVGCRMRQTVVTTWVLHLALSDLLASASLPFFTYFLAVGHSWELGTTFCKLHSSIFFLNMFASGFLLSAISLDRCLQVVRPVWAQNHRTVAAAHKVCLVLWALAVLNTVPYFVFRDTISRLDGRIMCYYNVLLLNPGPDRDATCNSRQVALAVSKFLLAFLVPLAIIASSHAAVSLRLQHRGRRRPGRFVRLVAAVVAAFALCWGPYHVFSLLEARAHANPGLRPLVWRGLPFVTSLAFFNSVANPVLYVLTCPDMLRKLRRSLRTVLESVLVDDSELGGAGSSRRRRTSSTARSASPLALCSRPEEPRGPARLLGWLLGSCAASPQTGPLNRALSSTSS
Parameters: expressed in transfected cells; host or cells: CHO-K1
Text: A whole cell receptor binding assay using [^3H]ramatroban as the competing radioactive ligand was employed to evaluate the compound binding activity to human CRTH2. The radioactive ligand [^3H]ramatroban was synthesized according to Sugimoto et. al. (Eur. J. Pharmacol. 524, 30-37, 2005) to a specific activity of 42 Ci/mmol.
A cell line stably expressing human CRTH2 was established by transfecting CHO-K1 cells with two mammalian expression vectors that harbored human CRTH2 and G-alpha16 cDNAs, respectively, using FuGene® 6 transfection reagent (from Roche). Stable clones expressing CRTH2 were selected by staining each clone with BM16 (BD Pharmingen™ from BD Biosciences, a division of Becton, Dickinson and Company), which is a rat monoclonal antibody to human CRTH2. The cells were maintained as monolayer cultures in Ham's F-12 medium containing 10% fetal bovine serum, 100 units/mL penicillin, 100 μg/mL streptomycin, 2 mM glutamine, 0.5 mg/mL G418 (geneticin) for CRTH2, and 0.2 mg/mL hygromycin-B (for G-alpha 16). For whole cell receptor binding assay, the monolayer cells were rinsed once with PBS (phosphate buffered saline), dissociated using ethylenediaminetetraacetate (Versene™ EDTA from Lonza Inc.), and suspended in PBS containing 10 mM MgCl2 and 0.06% BSA (bovine serum albumin) at 1.5×10^6 cells/mL.
The binding reactions (0.2 mL) were performed in 96-well plates at room temperature in PBS containing 1.5×10^5 cells, 10 mM MgCl2, 0.06% BSA, 20 nM [^3H]ramatroban, and test compound at various concentrations. After 1 hour of binding reactions, the cells were harvested on GF™/B filter microplates (microtiter plates with embedded glass fiber from Perkin Elmer, Inc.) and washed 5 times with PBS using a Filtermate™ Harvester (a cell harvester that harvests and washes cells from microplates from PerkinElmer, Inc.). The radioactivities bound to the cells were determined using a microplate scintillation counter (TopCount® NXT, from PerkinElmer, Inc.) after adding 50 μL of Microscint™ 20 scintillation fluid (from PerkinElmer, Inc.) to each well of the filter plates. The radioactivity from non-specific binding was determined by replacing compound with 10 μM of 15(R)-15-methyl PGD2 (from Cayman Chemical Company) in the reaction mixtures. The radioactivity bound to the cells in the absence of compound (total binding) was determined by replacing compound with 0.25% of DMSO (dimethyl sulfoxide) in the reaction mixture. Specific binding data were obtained by subtracting the radioactivity of non-specific binding from each binding data.
The IC50 value is defined as the concentration of the tested compound that is required for 50% inhibition of total specific binding. In order to calculate the IC50 value, the percent inhibition data were determined for 7 concentrations for each compound. The percent inhibition for a compound at each concentration was calculated according to the following formula, [1-(specific binding in the presence of compound)/(total specific binding)]×100. The IC50 value was then obtained by fitting the percent inhibition data to a sigmoidal dose-response (4 parameter logistic) model in the XLfit® software Excel add-in program [from ID Business Solutions Ltd., model 205, where F(x)=(A+(B−A)/(1+((C/×)^D)))].
`CN(C)S(=O)(=O)c1ccc(C(=O)c2cc(CC(=O)O)cc3ccccc23)cc1` [Example 1-1, [4-(4-Dimethylsulfamoyl-benzoyl)-naphthalen-2-yl]-acetic acid] was tested, and the IC50 was 17.8 nM. `CCS(=O)(=O)c1ccc(C(=O)c2cc(CC(=O)O)cc3ccc(F)cc23)c(Cl)c1` [Example 1-4, [4-(2-Chloro-4-ethanesulfonyl-benzoyl)-6-fluoro-naphthalen-2-yl]-acetic acid] gave an IC50 of 11.2 nM. For `O=C(O)Cc1cc(C(=O)c2ccc(S(=O)(=O)c3cccc(Cl)c3)cc2)c2cc(F)ccc2c1` [Example 1-5, {4-[4-(3-Chloro-benzenesulfonyl)-benzoyl]-6-fluoro-naphthalen-2-yl}-acetic acid], the IC50 was 6.2 nM. `CS(=O)(=O)c1ccc(C(=O)c2cc(CC(=O)O)cc3ccc(F)cc23)cc1` [Example 2-1, [6-Fluoro-4-(4-methanesulfonyl-benzoyl)-naphthalen-2-yl]-acetic acid] was tested, and the IC50 was 4.3 nM. With `COc1ccc2cc(CC(=O)O)cc(C(=O)c3ccc(S(C)(=O)=O)cc3)c2c1` [Example 2-2, [4-(4-Methanesulfonyl-benzoyl)-6-methoxy-naphthalen-2-yl]-acetic acid] the IC50 was 26.4 nM. In the case of `CS(=O)(=O)c1ccc(C(=O)c2cc(CC(=O)O)cc3ccccc23)cc1` [Example 2-3, [4-(4-Methanesulfonyl-benzoyl)-naphthalen-2-yl]-acetic acid], the IC50 is reported as 17 nM. For `CS(=O)(=O)c1ccc(C(=O)c2cc(CC(=O)O)cc3cc(F)ccc23)cc1` [Example 2-4, [7-Fluoro-4-(4-methanesulfonyl-benzoyl)-naphthalen-2-yl]-acetic acid], the IC50 was 40.6 nM. In the case of `Cc1cc(S(C)(=O)=O)ccc1C(=O)c1cc(CC(=O)O)cc2ccc(F)cc12` [Example 2-5, [6-Fluoro-4-(4-methanesulfonyl-2-methyl-benzoyl)-naphthalen-2-yl]-acetic acid], the IC50 is reported as 15.1 nM. Work on `CS(=O)(=O)c1ccc(C(=O)c2cc(CC(=O)O)cc3cc(F)c(F)cc23)cc1` [Example 2-6, [6,7-Difluoro-4-(4-methanesulfonyl-benzoyl)-naphthalen-2-yl]-acetic acid] yielded an IC50 of 15.5 nM. With `CS(=O)(=O)c1ccc(C(=O)c2cc(CC(=O)O)cc3ccc(F)cc23)c(Cl)c1` [Example 2-8, [4-(2-chloro-4-methanesulfonyl-benzoyl)-6-fluoro-naphthalen-2-yl]-acetic acid] the IC50 was 8.5 nM. Work on `CS(=O)(=O)c1cccc(C(=O)c2cc(CC(=O)O)cc3ccc(F)cc23)c1` [Example 2-10, [6-Fluoro-4-(3-methanesulfonyl-benzoyl)-naphthalen-2-yl]-acetic acid] yielded an IC50 of 44.8 nM. `CCS(=O)(=O)c1ccc(C(=O)c2cc(CC(=O)O)cc3ccc(F)cc23)cc1` [Example 2-13, [4-(4-Ethanesulfonyl-benzoyl)-6-fluoro-naphthalen-2-yl]-acetic acid] was tested, and the IC50 was 3 nM. For `CN(C)S(=O)(=O)c1ccc(C(=O)c2cc(CC(=O)O)cc3ccc(F)cc23)cc1` [Example 2-14, [4-(4-Dimethylsulfamoyl-benzoyl)-6-fluoro-naphthalen-2-yl]-acetic acid], the IC50 was 2.7 nM. Work on `CNS(=O)(=O)c1ccc(C(=O)c2cc(CC(=O)O)cc3ccc(F)cc23)cc1` [Example 2-15, [6-Fluoro-4-(4-methylsulfamoyl-benzoyl)-naphthalen-2-yl]-acetic acid] yielded an IC50 of 3.3 nM. In the case of `O=C(O)Cc1cc(C(=O)c2ccc(S(=O)(=O)N3CCOCC3)cc2)c2cc(F)ccc2c1` [Example 2-16, {6-Fluoro-4-[4-(morpholine-4-sulfonyl)-benzoyl]-naphthalen-2-yl}-acetic acid], the IC50 is reported as 3.3 nM. Work on `CS(=O)(=O)c1ccc(C(=O)c2cc(CC(=O)O)cc3ccc(F)cc23)c(F)c1` [Example 2-17, [6-Fluoro-4-(2-fluoro-4-methanesulfonyl-benzoyl)-naphthalen-2-yl]-acetic acid] yielded an IC50 of 14.5 nM. `CS(=O)(=O)c1ccc(C(=O)c2cc(CC(=O)O)cc3ccc(F)cc23)cc1C(F)(F)F` [Example 2-18, [6-Fluoro-4-(4-methanesulfonyl-3-trifluoromethyl-benzoyl)-naphthalen-2-yl]-acetic acid] gave an IC50 of 4.2 nM. With `CCc1cc(C(=O)c2cc(CC(=O)O)cc3ccc(F)cc23)ccc1S(C)(=O)=O` [Example 2-19, [4-(3-Ethyl-4-methanesulfonyl-benzoyl)-6-fluoro-naphthalen-2-yl]-acetic acid] the IC50 was 2.3 nM. `CCS(=O)(=O)c1ccc(C(=O)c2cc(CC(=O)O)cc3ccc(F)cc23)c(C)c1` [Example 2-20, [4-(4-Ethanesulfonyl-2-methyl-benzoyl)-6-fluoro-naphthalen-2-yl]-acetic acid] gave an IC50 of 17.9 nM. Molecule `O=C(O)Cc1cc(C(=O)c2ccc(S(=O)(=O)N3CCCCC3)cc2)c2cc(F)ccc2c1` [Example 2-21, {6-Fluoro-4-[4-(piperidine-1-sulfonyl)-benzoyl]-naphthalen-2-yl}-acetic acid] has an IC50 of 3.8 nM. `CCN(CC)S(=O)(=O)c1ccc(C(=O)c2cc(CC(=O)O)cc3ccc(F)cc23)cc1` [Example 2-22, [4-(4-Diethylsulfamoyl-benzoyl)-6-fluoro-naphthalen-2-yl]-acetic acid] showed an IC50 of 2.5 nM. `Cc1cc(S(=O)(=O)N2CCOCC2)ccc1C(=O)c1cc(CC(=O)O)cc2ccc(F)cc12` [Example 2-23, {6-Fluoro-4-[2-methyl-4-(morpholine-4-sulfonyl)-benzoyl]-naphthalen-2-yl}-acetic acid] was tested, and the IC50 was 3.7 nM. In the case of `Cc1cc(S(=O)(=O)N(C)C)ccc1C(=O)c1cc(CC(=O)O)cc2ccc(F)cc12` [Example 2-24, [4-(4-Dimethylsulfamoyl-2-methyl-benzoyl)-6-fluoro-naphthalen-2-yl]-acetic acid], the IC50 is reported as 6.9 nM. `CNS(=O)(=O)c1ccc(C(=O)c2cc(CC(=O)O)cc3ccc(F)cc23)c(C)c1` [Example 2-25, [6-Fluoro-4-(2-methyl-4-methylsulfamoyl-benzoyl)-naphthalen-2-yl]-acetic acid] gave an IC50 of 8.9 nM. Molecule `O=C(O)Cc1cc(C(=O)c2ccc(S(=O)(=O)N3CCN(c4ccccc4F)CC3)cc2)c2cc(F)ccc2c1` [Example 2-26, (6-Fluoro-4-{4-[4-(2-fluoro-phenyl)-piperazine-1-sulfonyl]-benzoyl}-naphthalen-2-yl)-acetic acid] has an IC50 of 7 nM. Molecule `CS(=O)(=O)c1ccc(C(=O)c2cc(CC(=O)O)cc3ccc(Cl)cc23)cc1` [Example 2-27, [6-Chloro-4-(4-methanesulfonyl-benzoyl)-naphthalen-2-yl]-acetic acid] has an IC50 of 6.4 nM. Molecule `Cc1ccc2cc(CC(=O)O)cc(C(=O)c3ccc(S(C)(=O)=O)cc3)c2c1` [Example 2-28, [4-(4-Methanesulfonyl-benzoyl)-6-methyl-naphthalen-2-yl]-acetic acid] has an IC50 of 21.3 nM. `CS(=O)(=O)c1cc(C(=O)c2cc(CC(=O)O)cc3ccc(F)cc23)ccc1F` [Example 2-31, [6-Fluoro-4-(4-fluoro-3-methanesulfonyl-benzoyl)-naphthalen-2-yl]-acetic acid] was tested, and the IC50 was 103 nM. `CS(=O)(=O)c1ccc(C(=O)c2cc(CC(=O)O)cc3cc(C(F)(F)F)ccc23)cc1` [Example 2-32, [4-(4-Methanesulfonyl-benzoyl)-7-trifluoromethyl-naphthalen-2-yl]-acetic acid] showed an IC50 of 272 nM. Work on `CCOC(=O)N1CCN(S(=O)(=O)c2ccc(C(=O)c3cc(CC(=O)O)cc4ccc(F)cc34)cc2)CC1` [Example 4-1, 4-[4-(3-Carboxymethyl-7-fluoro-naphthalene-1-carbonyl)-benzenesulfonyl]-piperazine-1-carboxylic acid ethyl ester] yielded an IC50 of 8.3 nM.
